What was measured:
[1] = system: CFA induced oedema; assay: CFA induced oedema in rat, paw volume (plethysmometer); assay type: in vivo
Description: Assessment of the anti-hyperalgesic properties of (3S)-tetrahydrofuran-3-yl (4S)-4-isopropyl-1,4,6,7-tetrahydro-5H-imidazo[4,5-c]pyridine-5-carboxylate mesylate salt was determined through measurement of weight bearing following CFA induced hypersensitivity. Naive rats distribute their body weight equally between the two hind paws. However, when the injected (left) hind paw is painful, the weight is re-distributed so that less weight is put on the affected paw (decrease in weight bearing on injured paw). Weight bearing through each hind limb was measured using a rat incapacitance tester (Linton Instruments, UK). Rats were placed in the incapacitance tester with the hind paws on separate sensors and the average force exerted by both hind limbs was recorded over 4 seconds. The injection of CFA also induces an oedema that can be assessed by paw volume; this is measured using a plethysmometer. […]
Naive male, Sprague Dawley rats were acclimatised with food and water available ad libitum. […] Weight bearing was assessed in all groups 1, 2 and 4 hours post compound administration. […] Data was analysed by comparing treatment groups to control group at each time point. Weight bearing (g) readings were taken for both right and left hind paws and the difference calculated. […]
Data Is expressed as % reversal of the hypersensitivity to pain. Paw Volume (mL) readings were taken for the left hind paws. […]

[2] = system: CCI induced neuropathic pain; assay: Chronic Constriction Injury (CCI) model of neuropathic pain, mechanical allodynia (von-Frey); assay type: in vivo, rat
From the text: The Chronic Constriction Injury (CCI) model of neuropathic pain involves unilateral loose ligation of four ligatures around the left sciatic nerve at mid-thigh level spaced 1 mm apart. This procedure results in the development of hyperalgesia, allodynia and spontaneous pain (ectopic discharges) which can be measured using mechanical and thermal behavioural assessments. As such, this model is believed to mimic some of the symptoms and aetiology of neuropathic pain observed in the clInic (Bennett G J and Xie Y K., 1988; Field et al., 1999).
Naive male Sprague Dawley rats weighing 200-250 g were acclimatised to the procedure room in their home cages, with food and water available ad libitum. All animals underwent behavioural testing of mechanical allodynia prior to surgery in order to determine the baseline withdrawal thresholds. The average of the last two (out of three) baseline paw-withdrawal thresholds to stimulation with von-Frey hairs was taken as the baseline.
Under Isoflurane anaesthesia mixed with oxygen […] the left hind leg was shaved mid-thigh level and an incision made through the skin using a scalpel. The biceps femoris muscle layer was dissected by making an initial incision using a pair of sharp scissors, which was then widened using a pair of blunt scissors. The common sciatic nerve was exposed using a pair of forceps and 4 loose ligatures of chromic gut (SMI) were tied around the sciatic nerve with 1 mm spacing between each. The nerve was then returned below the muscle layer and the wound closed using absorbable sutures (Vicryl).
Behavioural testing started 19 days post-surgery with mechanical readings taken on day 19, and day 22. […]
On day 23, animals were treated orally with either Vehicle (30% aqueous hydroxypropyl-beta-cyclodextrin), 4-{5-[3-(4-Fluorophenyl)-3H-imidazo[4,5-c]pyridin-2-yl]pyridin-2-yl}morpholine 15, 50 and 150 mg/kg (5 mL/kg dose volume), or Pregabalin 30 mg/kg (2 mL/kg dose volume in water). Paw withdrawal thresholds (PWT) from each of the animals (mechanical von-Frey, mvF) were evaluated at 1 and 3 hours post dosing.
Static mechanical (tactile) allodynia: Measurement of withdrawal threshold was achieved using calibrated (force; g) von-Frey monofilaments (Touch-Test Sensory Evaluator; Scientific Marketing Associates) applied to the plantar surface of the hindpaw. Withdrawal threshold was determined by increasing and decreasing stimulus intensity, and estimated using the Dixon's up-down method (Dixon, 1980; Chaplan et al., 1994). […]
Mechanical allodynia (von Frey) data were analysed using two-way repeated measures ANOVA with ‘treatment’ as a between subjects effect and ‘day’ as a within subjects effect. […]

[3] = system: CFA induced hypersensitivity; assay: CFA induced hypersensitivity in rat, weight bearing (incapacitance tester); assay type: in vivo; conditions: for inhibition of the hypersensitivity response (weight bearing) / reversal of CFA induced hypersensitivity (weight bearing): rat
Description: (§1) Assessment of the anti-hyperalgesic properties of (3S)-tetrahydrofuran-3-yl (4S)-4-isopropyl-1,4,6,7-tetrahydro-5H-imidazo[4,5-c]pyridine-5-carboxylate mesylate salt was determined through measurement of weight bearing following CFA induced hypersensitivity. Naive rats distribute their body weight equally between the two hind paws. However, when the injected (left) hind paw is painful, the weight is re-distributed so that less weight is put on the affected paw (decrease in weight bearing on injured paw). Weight bearing through each hind limb was measured using a rat incapacitance tester (Linton Instruments, UK). Rats were placed in the incapacitance tester with the hind paws on separate sensors and the average force exerted by both hind limbs was recorded over 4 seconds. The injection of CFA also induces an oedema that can be assessed by paw volume; this is measured using a plethysmometer. The rat's hind paw is placed into the cylinder containing a solution and the volume of displaced liquid determines the paw volume.
Naive male, Sprague Dawley rats were acclimatised with food and water available ad libitum. Habituation to the incapacitance tester was performed. Baseline weight bearing and paw volume recordings were taken prior to induction of insult. Inflammatory hypersensitivity was induced by intraplantar injection of CFA (100μl of 1 mg/ml solution) into the left hind paw. A pre-treatment weight bearing and paw volume measurement was taken to assess hypersensitivity 23 hours post-CFA. Animals were then ranked and randomised according to CFA window in a Latin square design. […] (dosed in water at 2 mL/Kg, pH ˜5-6), alongside vehicle and reference group (indomethacin), n=9-10 per group. Weight bearing was assessed in all groups 1, 2 and 4 hours post compound administration. Paw volume was assessed 4 hours post compound administration. Data was analysed by comparing treatment groups to control group at each time point. Weight bearing (g) readings were taken for both right and left hind paws and the difference calculated. Data is expressed as % reversal of the hypersensitivity to pain, (post dose reading—pre dose reading)/(naïve reading—pre dose reading)×100, where naive weight bearing difference—pre dose weight bearing difference is defined as the CFA window to be reversed Statistical analysis was conducted by means of repeated measures ANOVA followed by Planned comparison test using InVivoStat (invivostat.co.uk), (p<0.05 considered significant).
as §1, with “of (S)-Carbidopa” for “of (3S)-tetrahydrofuran-3-yl (4S)-4-isopropyl-1,4,6,7-tetrahydro-5H-imidazo[4,5-c]pyridine-5-carboxylate mesylate salt”, “the Incapacitance” for “the incapacitance”
Naive male, Sprague Dawley rats were acclimatised with food and water available ad libitum. Habituation to the incapacitance tester was performed. Baseline weight bearing and paw volume recordings were taken prior to induction of insult. Inflammatory hypersensitivity was induced by intraplantar injection of CFA (100 μl of 1 mg/ml solution) into the left hind paw.

[4] = oral 10 mg/kg, 1 and 4 hours post administration
[5] = oral 1, 3 and 10 mg/kg, 24 hours post CFA, 1 and 4 hours post treatment

CC(C)[C@H]1c2nc[nH]c2CCN1C(=O)O[C@H]1CCOC1.CS(=O)(=O)O [(3S)-tetrahydrofuran-3-yl (4S)-4-isopropyl-1,4,6,7-tetrahydro-5Himidazo[4,5-c]pyridine-5-carboxylate mesylate salt]
effect on paw volume ([1]; rat, 150, 250 and 500 mg/kg p.o., 4 hours post compound administration): No effect

CC(C)C[C@H](CN)CC(=O)O [Pregabalin, reference compound]
withdrawal threshold (von-Frey mechanical allodynia) ([2]; rat CCI, 30 mg/kg p.o., day 23 post-surgery, reference): increased the withdrawal threshold to a degree that was comparable with those animals that had undergone sham surgery

Fc1ccc(-n2c(-c3ccc(N4CCOCC4)nc3)nc3ccncc32)cc1 [4-{5-[3-(4-Fluorophenyl)-3H-imidazo[4,5-c]pyridin-2-yl]pyridin-2-yl}morpholine]
withdrawal threshold (von-Frey mechanical allodynia) ([2]; rat CCI, 50 mg/kg p.o., vs the vehicle group): reaching statistical significance at 3 h | withdrawal threshold (von-Frey mechanical allodynia) ([2]; rat CCI, 150 mg/kg p.o., vs the vehicle group): reaching statistical significance vs the vehicle group at 1 h and 3 h | withdrawal threshold (von-Frey mechanical allodynia) ([2]; rat CCI, 15, 50 and 150 mg/kg p.o., 1 and 3 hours post dosing, FIG. 9): increased withdrawal threshold in a dose and temporally dependent fashion

CC(=O)N1CCN(c2ccc(-c3nc4ccncc4n3-c3ccc(F)cc3)cn2)CC1 [Compound 2, 1-(4-{5-[3-(4-Fluorophenyl)-3H-imidazo[4,5-c]pyridin-2-yl]pyridin-2-yl}piperazin-1-yl)ethan-1-one]
inhibition of the hypersensitivity response (weight bearing) [3, 4]: significantly inhibiting the hyperactivity response at both 1 and 4 hours post administration | inhibition of the hypersensitivity response (weight bearing) [3, 5]: dose-dependently inhibited the hypersensitivity response

C[C@]12C=CC(=O)C=C1CC[C@@H]1[C@@H]2[C@@H](O)C[C@@]2(C)[C@H]1CC[C@]2(O)C(=O)CO [Prednisolone, reference compound]
inhibition of the hypersensitivity response (weight bearing) ([3]; Part A, 0.3-10 mg/kg alone, 1 and 3 hours post treatment, FIG. 3): dose-dependently inhibited the hypersensitivity response

CC(C)[C@H]1c2nc[nH]c2CCN1C(=O)O[C@H]1CCOC1 [(3S)-Tetrahydrofuran-3-yl (4S)-4-isopropyl-1,4,6,7-tetrahydro-5H-imidazo[4,5-c]pyridine-5-carboxylate]
efficacy in CFA hyperalgesia model (reversal of hypersensitivity) ([3]; rat, 150, 250 and 500 mg/kg p.o., compared with indomethacin 10 mg/kg, FIG. 1): effective in a dose-dependent manner, and comparably in efficacy to the gold standard benchmark indomethacin

CC(C)[C@H]1c2nc[nH]c2CCN1C(=O)O[C@H]1CCOC1.CS(=O)(=O)O [(3S) Tetrahydrofuran-3-yl (4S)-4-isopropyl-1,4,6,7-tetrahydro-5H-imidazo[4,5-c]pyridine-5-carboxylate mesylate salt]
reversal of CFA induced hypersensitivity (weight bearing) ([3]; 150 mg/kg p.o., 1, 2 and 4 hours post dose): no significant reversal of hypersensitivity at any time point | reversal of CFA induced hypersensitivity (weight bearing) ([3]; 250 mg/kg p.o., 1, 2 and 4 hours post dose): significant reversal at 4 hours | reversal of CFA induced hypersensitivity (weight bearing) ([3]; 500 mg/kg p.o., 1, 2 and 4 hours post dose): effective at all time points with maximum effect seen at 4 hours post dose

CS(=O)(=O)N1CCN(c2ccc(-c3nc4ccncc4n3-c3ccc(F)cc3)cn2)CC1 [1-{5-[3-(4-Fluorophenyl)-3H-imidazo[4,5-c]pyridin-2-yl]pyridin-2-yl}-4 methanesulfonylpiperazine]
inhibition of the hypersensitivity response (weight bearing) ([3]; oral 3 mg/kg, 1 and 4 hours post administration): significant reduction at 4 hours post administration | inhibition of the hypersensitivity response (weight bearing) [3, 4]: significantly inhibiting the hyperactivity response at both 1 and 4 hours post administration | inhibition of the hypersensitivity response (weight bearing) [3, 5]: dose-dependently inhibited the hypersensitivity response

C[C@@](Cc1ccc(O)c(O)c1)(NN)C(=O)O [(S)-Carbidopa, reference compound]
effect on oedema (paw volume) ([1]; rat, Part B, 3-100 mg/kg, 3 hours post treatment, FIG. 5): no effect on oedema | inhibition of the hypersensitivity response (weight bearing) ([3]; Part B, 3-100 mg/kg alone, 1 and 3 hours post treatment, FIG. 4): dose-dependently inhibited the hypersensitivity response

COc1ccc2c(c1)c(CC(=O)O)c(C)n2C(=O)c1ccc(Cl)cc1 [indomethacin, reference compound]
reversal of CFA induced hypersensitivity (weight bearing) ([3]; 10 mg/kg, 24 hours post CFA, reference): marked reversal of the hypersensitivity

From patent US20200397764A1, “VAP-1 INHIBITORS FOR TREATING PAIN” (BENEVOLENTAI CAMBRIDGE LIMITED, priority 2015, published 2020)
